Consider 14 molecules from patent US20090286808A1, “Opsin Stabilizing Compounds and Methods of Use” (University of Florida Research Foundation, Inc., priority 2006, published 2009).

Entries after “also recorded” stand apart in the source; their conditions may differ. Where two headings read alike, the source gives them in different places.

Series [1] concerns the target T1, P23H opsin (Bos taurus, UniProt P02699, P23H).
T1 construct: expressed in transfected cells
Description: Yield of folded P23H rhodopsin purified from P23H opsin expressing HEK293 cells, by spectrophotometry. The series is classed as cell-based, bovine. The following applies: for increase in P23H pigment over control: compound present during P23H opsin expression, 48 hours, β-ionone 10 μM; for increase in the yield of folded P23H rhodopsin: P23H opsin expressing cells treated with compound, versus no compound; for % Increase in P23H Yield (Table 1): compound concentration 100 μM, compared to control; for yield of folded P23H rhodopsin, in words: versus absence of the compound. As to the method: Wild-type (WT) and P23H expressing stable cell lines were generated in a commercially available cloning system, the Flp-In T-Rex System™ (Invitrogen). The stable cells were grown in DMEM high glucose media supplemented with 10% (vlv) fetal bovine serum, antibiotic antimycotic solution, […] blasticidin and hygromycin at 37° C. in presence of 5% CO2. For all the experiments the cells were allowed to reach confluence and were induced with 1 μg/ml tetracycline after change of media and then compounds were added. The plates were incubated for 48 h after which the cells were harvested.
For purification of rhodopsin 100 μM […] was added to a confluent plate of P23H cells after induction. […] Rhodopsin purification was essentially as described below for opsin purification with minor modifications. Briefly, the cells were harvested and washed with PBS followed by incubation with 50 μM 11-cis-retinal for 1.5 h at 4° C. The cells were then washed three times with PBS to remove excess retinal. Lysis, column binding and elution from the column were same as in case of opsin purification.
Stable cell lines expressing the P23H opsin were generated using Flp-In T-Rex system (Invitrogen) in HEK293 cell line. To create plasmids for constructing stable cell lines, an EcoRI-NotI fragment from the wild-type or P23H mutant synthetoc bovine opsin gene in pMT4 (see Kaushal et al., Biochemistry, Vol. 33, pp. 6121-6128 (1994) was combined with the large EcoRI-NotI fragment of pcDNA5/FRT/TO (Invitrogen). The resulting plasmids contain opsin under the control of a tetracycline-inducible human cytomegalovirus promoter and a flippase recognition sequence (FRT) for site sepecific recombination at the unique chromosomal FRT site of HEK293 Flp-In T-Rex. The opsin sequence in these plasmids was verified by PCR cycle sequencing. To construct stable cell lines, HEK293 Flp-In T-Rex cells were co-transfected with the flippase vector pOG44 (from Invitrogen) and the pcDNA5/FRT/TO vector or its derivatives containing the opsin gene. Stable recombinants were obtained by selecting for cells expressing resistance to hygromycin due to plasmid recombination at the FRT site. After the initial selection, the stable cell lines were routinely grown in the same media as HEK293 Flp-In T-rex, except that […].
The stable cells were grown in DMEM high glucose media supplemented with 10% (v/v) fetal bovine serum, antibiotic/antimycotic solution, 5 μg/ml blasticidin and hygromycin at 37° C. in presence of 5% CO2. For all the experiments the cells were allowed to reach confluence and were induced with 1 μg/mi tetracycline after change of media and then compounds were added. The plates were incubated for 48 h after which the cells were harvested.
The effect of the compounds on P23H rhodopsin yield was assessed by purifying and spectrophotormetrically determining the yield. After 48 hours of induction and treatment with compounds the cells were harvested and rhodopsin purified essentially as described in Noorwez et al. (2004). For purification of rhodopsin 100 μM NCI-45012 was added to a confluent plate of P23H cells after induction. […] Rhodopsin purification was essentially as described earlier for opsin purification with minor modifications. Briefly, the cells were harvested and washed with PBS followed by incubation with 50 μM 11-cis-retinal for 1.5 hours at 4° C., The cells were then washed three times with PBS to remove excess retinal. Lysis, column binding and elution from the column were the same as for opsin purification.
Compounds identified by computational modeling (see Example 1) were screened as described above. The effect of compounds on the yield of mutant rhodopsin was determined by spectrophotometry. […]

Series [2] has as its target T1, P23H opsin. The series is classed as cell-based, bovine. The procedure:
(§1) The P23H opsin producing cells were grown in 6-well plates and induced to produce P23H opsin. The DMSO solutions of the NCI compounds were individually added to separate wells at a final concentration of 100 μM. After incubation for 48 h cells were collected and washed with PBS. The cells were then lysed in PBSD by constantly rotating for 1 h at 4° C. The tubes were spun at 36000 rpm for […] and supernatant collected in fresh tubes. Total protein was quantified using a commercially available assay system, the DC protein assay (Biorad). Equal amounts of protein (10 μg) from different samples was loaded on 4-20% SDS polyacrylamide gels and total opsin quantified by western blotting.
as §1, with “the test” for “the NCI”, “1 hour” for “1 h”, “at 36,000” for “at 36000”, “using” for “using a commercially available assay system, the”, “blotting. Proteins were separated on SDS-PAGE gels and western blotted as described in Noorwez et at (2004).” for “blotting.”
Thus, a higher fraction of P23H molecules attain a stable conformation. […] This might also explain the difference in the degree of rescue obtained with these two pharmacological chaperones.

In series [3] the target is T2, WT opsin (Bos taurus, UniProt P02699). Nature of the series: Opsin regeneration and retinal competition: rate of 500 nm pigment formation of purified WT opsin with 11-cis-retinal. It counts as biochemical, bovine. As to the method:
WT opsin producing cells were grown in 10 cm culture plates and induced for opsin production. After 48 hour of induction the cells were harvested and washed with PBS (10 mM sodium phosphate, 130 mM NaCl, pH 7.2). The cells were lysed in PBSD (PBS containing 1.0% DM and 1× protease inhibitor cocktail) for 1 hour and the lysate was added to 1D4 coupled sepharose beads and incubated for 1 hour at 4° C. The beads were washed 5 times in PBSD and twice with 10 mM sodium phosphate buffer containing 0.5% DM, pH 6.0. The bound WT opsin was eluted with a competing peptide representing the last 18 amino acids of rhodopsin in the latter buffer for 1 hour.
All the opsin regeneration and competition assays were performed under dim red light in a Cary 50 spectrophotometer (Varian) equipped with temperature control. 25 μM purified WT opsin was mixed with 50 μM 11-cis retinal and scanned every two minutes in the range of 250-650 nm until no more rhodopsin was regenerated. Similarly opsin was mixed with compound SN10011 (2 or 5 mM) and allowed to sit for 10 minutes on ice. […] The reactions were conducted in 100 μl total volume where the compounds were provided in 2 μl solution to 98 μl opsin solution. The temperature was maintained at 20° C.

The target of series [4] is T2, WT opsin. The series is classed as biochemical, bovine. The conditions noted are these: compound without 11-cis-retinal chromophore, in vitro. As to the method: The cells were washed after 48 h and rhodopsin purified without treating the cells with 11-cis-retinal under conditions that yield only folded rhodopsin (Noorwez et al. (2004)).
Series [5] concerns P347S (Class I) mice. The following applies: cited from earlier work.
In series [6] the test system is T17M (Class II) mice. The conditions noted are these: cited from earlier work.
In series [7] the target is T1, P23H opsin. Nature of the series: Yield of folded P23H rhodopsin purified from P23H opsin expressing HEK293 cells, by spectrophotometry. It counts as cell-based, bovine. The conditions noted are these: 48 h, no 11-cis-retinal.
Where [8] appears, read: in the presence of 11-cis-retinal.

With `CC1=C(/C=C/C(C)=C/C=C/C(C)=C/C=O)C(C)(C)CCC1` [11-cis-retinal, reference compound], in series [1], the “effectiveness of 11-cis-retinal relative to β-ionone in increasing cellular yields of P23H rhodopsin” value is listed as “about 2 fold” and the “increase in P23H pigment over control” value is 5 fold. In series [2] (setting [8]), the “increase in yield of total opsin” value was 2.4 fold and the “yield of folded rhodopsin” value was determined as 2.6 fold.
Turning to `CC(=O)c1c(C)n[nH]c1C` [Compound 1, 1-(3,5-dimethyl-1H-pyrazol-4-yl)ethanone], the “inhibition of opsin regeneration (pigment formation with 11-cis-retinal), in words” value (“inhibition of opsin regeneration” for short) in series [3] (listed as SN10011) is “significant effect on inhibition of pigment formation; also recorded: inhibited”. In addition, in series [1], the “% Increase in P23H Yield (Table 2)” value came out at 30 ± 5%; the “increase in the yield of folded P23H rhodopsin” value came to 30%; the “% Increase in P23H Yield (Table 1)” value was determined as 31%; the “yield of folded P23H rhodopsin, in words” value is on record as “increased yield of folded rhodopsin”. For the same molecule, in series [4] (listed as SN10011), the “formation of a 500 nm absorbing pigment with purified WT opsin” value is “No pigment was formed; also recorded: No 500 nm absorbing pigment was generated”.
With `N#Cc1cn(Cc2ccco2)c(=O)[nH]c1=O` [Compound 2, 1-furan-2-ylmethyl-2,4-dioxo-1,2,3,4-tetrahydro-pyrimidine-5-carbonitrile], in series [1], the “% Increase in P23H Yield (Table 2)” value is reported as 40 ± 7% and the “% Increase in P23H Yield (Table 1)” value worked out at 43%.
`O=[PH](O)c1ccccc1` [Compound 3, phenyl-phosphinic acid]: in series [1], the “% Increase in P23H Yield (Table 2)” value is listed as 40 ± 3% and the “% Increase in P23H Yield (Table 1)” value was 32%.
For the molecule `Cc1cc([N+](=O)[O-])ccn1` [Compound 4, 2-methyl-4-nitro-pyridine], in series [1], the “% Increase in P23H Yield (Table 2)” value is recorded as 25 ± 8% and the “% Increase in P23H Yield (Table 1)” value worked out at 24%.
Regarding `O=C1NC(CCO)C(=O)NC1CCO` (centres unmarked) [Compound 5, 3,6-bis-(2-hydroxyethy)-piperazine-2,5-dione], in series [1], the “% Increase in P23H Yield (Table 2)” value stood at 30 ± 10% and the “% Increase in P23H Yield (Table 1)” value is recorded as 15%.
For `CC(C)N(CC#N)C(C)C` [Compound 6, diisopropylaminoacetonitrile], in series [1], the “% Increase in P23H Yield (Table 2)” value was determined as 25 ± 3% and the “% Increase in P23H Yield (Table 1)” value is 28%.
Regarding `N#Cc1ccc2c(c1)OCO2` [NSC 27009, 3,4-Methylenedioxybenzonitrile], the “% Increase in P23H Yield (Table 2)” value in series [1] turned out to be 20 ± 5%.
Turning to `Cn1cc(C(N)=O)ccc1=N` [NSC 66688, 6-imino-1-methyl-1,6-dihydro-3-pyridinecarboxamine], in series [1], the “% Increase in P23H Yield (Table 2)” value is 40 ± 9%.
On the same count and under the same terms, the same measure for `Nn1nnc2ccccc21` [NSC 114498, 1H-1,2,3-benzotriazol-1-amine]: 30 ± 6%; for `Oc1ccccc1C=Nn1cnnc1` [NSC 121968, 4-Salicylideneamino-1,2,4-triazol]: 29 ± 5%.
`C[C@@H]1CCC[C@H](C)C1` [cis-1,3-dimethylcyclohexane]: the “inhibition of opsin regeneration” value in series [3] was “much weaker inhibitor of opsin regeneration”. Besides, in series [1], the “increase in the yield of folded P23H rhodopsin” value was found to be 15% and the “yield of folded P23H rhodopsin, in words” value is on record as “increased yield of folded P23H rhodopsin”.
Regarding `CCCCCCCCCCCCCCCC(=O)OC/C=C(C)/C=C/C=C(C)/C=C/C1=C(C)CCCC1(C)C` [vitamin A palmitate], the “changes in retinal degeneration on treatment” value in series [5] is given as “no significant changes”. Besides, in series [6], the “decrease in outer nuclear layer (ONL) thickness in treated animals” value is given as 24%; the “decrease in the rate of decline in electroretinogram (ERG) a- and b-wave amplitudes” value was 40-45%.
With `CC(=O)/C=C/C1=C(C)CCCC1(C)C` [β-ionone], the “inhibition of opsin regeneration” value in series [3] is listed as “inhibited opsin regeneration in a dose dependent manner”. Also, the “increase in P23H pigment over control” value in series [1] was found to be 2.5 fold. For the same molecule, the “increase in yield of total opsin relative to no compound” value in series [2] (P23H cells, β-ionone) is 30%. The “formation of a 500 nm absorbing pigment with purified WT opsin” value in series [4] is reported as “does not form a light absorbing pigment; also recorded: did not form a 500 nm absorbing pigment; also recorded: no 500 nm absorbing pigment was formed”. Further, the “pigment from P23H HEK cells treated with compound, purified without 11-cis-retinal treatment” value in series [7] was “No pigment was detected; also recorded: No pigment was observed; also recorded: No pigment was generated”.
